Test results from patent US6383521B1, “Wondonin A and process for preparing the same” (Korea Ocean Research and Development, priority 2000, dated 2002).

Key:
[1] = test system: Human umbilical vascular endothelial cells (HUVEC); test: Invasion assay of HUVEC through Matrigel/Type IV collagen coated filter; assay type: cell-based; conditions: 10 μg/ml Wondonin A medium, bFGF, 18 hours
Experimental: Powdered medium 199 (M 199, Sigma Chemical Co., U.S.A.) and 2.2 g (per liter) of sodium bicarbonate was dissolved in double distilled water, pH of the medium was adjusted to 7.2 with HCl, and followed by sterile filtration on a […] Millipore filter. Then, a medium was finally prepared by supplementing, just before use, with 20% (w/v) FBS (fetal bovine serum ), 1% (w/v) Penicillin-Streptomycin (P-S), 3 ng/ml bFGF (basic fibroblast growth factor, a growth factor for angiogenesis) and 100 μg/ml heparin. Human umbilical vascular endothelial cells (“HUVEC”) purchased from ATCC (American Type Culture Collection) were seeded to 6 ml of the medium thus prepared in a T25 flask (25 cm^2) and grown to form a monolayer in an incubator at 37° C. under an environment of 5% (v/v) CO2 and saturated humidity, and then subcultured in a medium containing 0.05% (w/v) Trypsin-EDTA.
For invasion assay, lower surface of the polycarbonate filter (pore size: 8 μm) equipped in an insert chamber was coated with 5 μg of Type IV collagen and upper surface of the filter was coated with 25 μg of Matrigel (Collaborative Research, Inc., Waltham, Mass., U.S.A.). […] After staining of the fixed cells with haematoxillin and eosin, Matrigel was detached from the filter and HUVEC cells which have passed through the filter were counted. […]

[2] = test system: vascular endothelial cells; test: Viability of vascular endothelial cells (Trypan Blue); assay type: cell-based, Human; conditions: 48 hour incubation, medium without FBS
Experimental: Vascular endothelial cells grown on Example 3 were placed onto a 24-well plate with 5×10^4 cells/well starting cell number in 1 ml (per well) of the same medium as in Example 3 except for containing 10% (v/v) FBS, and incubated at 37° C. under an environment of 5% (v/v) CO2 for 24 hours to the level of 80% cell confluency. Then, cells were rinsed with 1 ml of PBS and 1 ml of the same medium without FBS was added and then Wondonin A was added to reach the concentrations of […], respectively. After 48 hour incubation, medium was removed and cells were harvested by trypsinization. Cells were stained in a medium containing 0.4% (w/v) Trypan Blue at room temperature and then counted with haemacytometer. The cell viability was assessed based on total cell number and stained cell number (see: Table 1).

[3] = test system: chick embryo chorioallantoic membrane; test: Chick embryo chorioallantoic membrane assay; assay type: in vivo; conditions: ratio of embryos with avascular zone to total embryos; cover slip on CAM, 2 days incubation
Experimental: On day 3.5, a part of egg shell was cracked gently, and on day 4.5, a cover slip containing Wondonin A (prepared by drying […] Wondonin A in methanol on a cover slip) or a control cover slip (prepared by drying 2 μl of methanol on a cover slip) was placed on the chorioallantoic membrane (CAM) through the crack and then the crack was sealed. After incubation for 2 days, 10% fat emulsion was injected to CAM, which was examined under a microscope. The embryos with a clear avascular zone (inhibition of angiogenesis) were counted and inhibitory effect of Wondonin A on angiogenesis was evaluated by calculating the ratio of the number of embryo with avascular zone to the total number of embryo tested (see: Table 2).

[4] = Physicochemical data of Wondonin A
From the text: The spectrophotomeric data of Wondonin A are as follows: […]

solubility in polar organic solvents ([4]; methanol and dimethylsulfoxide): highly soluble
stability ([4]; pale-yellow semi-solid at room temperature): stable
Structure (SMILES): CN(C)CCc1cn(C(c2ccc(O)c(O)c2)C2Oc3ccc(/C=C/OS(=O)(=O)[O-])cc3O2)cn1.[Na+] (stereo not drawn) [Wondonin A]
reduction in a cell number passed through the filter compared to the control group [1]: 66%
Viability (%) ([2]; Wondonin A 1 μg/ml): 98%
Viability (%) ([2]; Wondonin A 10 μg/ml): 97%
Inhibition of angiogenesis (%) [3]: 89%
